Data: patent US10626144B2, “Peptide derivatives and uses thereof” (Nosopharm, priority 2014, dated 2020)
Where two headings read alike, the source gives them in different places. Numbered stars: 1 amine (or outer) side, 2 acyl side, 3 side chain; on linkers, the order of the positions; unused ones are H or OH. Square brackets hold non-standard residues; d marks the D form. Peptide text beside a SMILES is read from it. * marks the point of attachment. Dab(3S-OH) = NC[C@H](O)[C@H](N)C(=O)O; Gly(cPent) = N[C@H](C(=O)O)C1CCCC1; ΔZArg = N=C(N)NCC/C=C(\N)C(=O)O; AllylGly = C=CC[C@H](N)C(=O)O; NMeK = CN[C@@H](CCCCN)C(=O)O; X2 = CC=C(N[*:1])C(=O)[*:2]; dOrn = NCCC[C@@H](N)C(=O)O; hSer = N[C@@H](CCO)C(=O)O; Pra = C#CC[C@H](N)C(=O)O; Dab = NCC[C@H](N)C(=O)O; Dap = NC[C@H](N)C(=O)O; NH(CH2)4NH2 = NCCCCN*

Experiments:
[1] = system: Escherichia coli ATCC 25922; assay: MIC, broth microdilution (CLSI), reference strain; settings: CAMHB
[2] = system: Acinetobacter baumannii ATCC 19606; assay: MIC, broth microdilution (CLSI), reference strain; settings: CAMHB
[3] = system: Pseudomonas aeruginosa ATCC 27853; assay: MIC, broth microdilution (CLSI), reference strain; settings: CAMHB
[4] = biological target: N-type calcium channels (Cav2.2) (Rattus norvegicus (Rat), UniProt Q02294); assay: biochemical; format: binding
[5] = system: Staphylococcus aureus ATCC 13709; assay: MIC, broth microdilution (CLSI), reference strain; settings: CAMHB
[6] = class symbol, rat cerebral cortex, [125I]ω-conotoxin GVIA 0.001 nM, 30 minutes at room temperature, read-out: IC50 Cav2.2
[7] = value in brackets, rat cerebral cortex, [125I]ω-conotoxin GVIA 0.001 nM, read-out: IC50 Cav2.2

Compound | Ec: MIC Escherichia coli ATCC 25922 [1] | Ab: MIC Acinetobacter baumannii ATCC 19606 [2] | Pa: MIC Pseudomonas aeruginosa ATCC 27853 [3] | IC50 [4, 6] [nM] | Sa: MIC Staphylococcus aureus ATCC 13709 [5] | IC50 [4] [nM] | IC50 [4, 7] [nM]
N=C(N)NCC/C=C(\NC(=O)[C@H](CCCCN)NC(=O)[C@H](Cc1cnc[nH]1)NC(=O)[C@@H]1CCCN1C(=O)[C@@H](CCCN)NC(=O)CNC(=O)[C@H](CCN)NC(=O)[C@@H](NC(=O)[C@@H](N)CCCCN)[C@@H](O)CN)C(=O)N[C@@H](CCCCN)C(=O)NCCCCN [21.1] (H-K[Dab(3S-OH)][Dab]G[dOrn]PHK[ΔZArg]K-{NH(CH2)4NH2}) | ++ (≤8 μg/mL) | ++ (≤8 μg/mL) | ++ (≤8 μg/mL) | < 30 | ++ (≤8 μg/mL) | – | –
CN[C@@H](CCCCN)C(=O)N[C@H](C(=O)N[C@H](C(=O)NCC(=O)N[C@H](CCCN)C(=O)N1CCC[C@H]1C(=O)N[C@@H](Cc1cnc[nH]1)C(=O)N[C@@H](CCCCN)C(=O)N/C(=C\CCNC(=N)N)C(=O)N[C@@H](CCCCN)C(=O)NCCCCN)[C@@H](O)CN)[C@@H](O)CN [22.3] (H-[NMeK][Dab(3S-OH)][Dab(3S-OH)]G[dOrn]PHK[ΔZArg]K-{NH(CH2)4NH2}) | ++ (≤8 μg/mL) | + (≤32 μg/mL) | + (≤32 μg/mL) | < 30 | ++ (≤8 μg/mL) | – | –
C[C@H](NC(=O)[C@@H]1CCCN1C(=O)[C@@H](CCCN)NC(=O)CNC(=O)[C@@H](NC(=O)[C@@H](NC(=O)[C@@H](N)CCCCN)[C@@H](O)CN)[C@@H](O)CN)C(=O)N[C@@H](CCCCN)C(=O)N/C(=C\CCNC(=N)N)C(=O)N[C@@H](CCCCN)C(=O)NCCCCN [22.4] (H-K[Dab(3S-OH)][Dab(3S-OH)]G[dOrn]PAK[ΔZArg]K-{NH(CH2)4NH2}) | ++ (≤8 μg/mL) | − (>32 μg/mL) | + (≤32 μg/mL) | < 30 | ++ (≤8 μg/mL) | – | –
N=C(N)NCCC[C@@H](NC(=O)[C@H](CCCCN)NC(=O)[C@H](Cc1cnc[nH]1)NC(=O)[C@@H]1CCCN1C(=O)[C@@H](CCCN)NC(=O)CNC(=O)[C@@H](NC(=O)[C@@H](NC(=O)[C@@H](N)CCCCN)[C@@H](O)CN)[C@@H](O)CN)C(=O)N[C@@H](CCCCN)C(=O)NCCCCN [22.5] (H-K[Dab(3S-OH)][Dab(3S-OH)]G[dOrn]PHK[dR]K-{NH(CH2)4NH2}) | + (≤32 μg/mL) | − (>32 μg/mL) | + (≤32 μg/mL) | < 30 | ++ (≤8 μg/mL) | – | –
CC=C(NC(=O)[C@H](CCCCN)NC(=O)[C@H](Cc1cnc[nH]1)NC(=O)[C@@H]1CCCN1C(=O)[C@@H](CCCN)NC(=O)CNC(=O)[C@@H](NC(=O)[C@@H](NC(=O)[C@@H](N)CCCCN)[C@@H](O)CN)[C@@H](O)CN)C(=O)N[C@@H](CCCCN)C(=O)NCCCCN [22.15] (H-K[Dab(3S-OH)][Dab(3S-OH)]G[dOrn]PHK[X2]K-{NH(CH2)4NH2}) | + (≤32 μg/mL) | − (>32 μg/mL) | − (>32 μg/mL) | – | ++ (≤8 μg/mL) | < 30 | 4
C[C@H](N)C(=O)N[C@H](C(=O)N[C@H](C(=O)NCC(=O)N[C@H](CCCN)C(=O)N1CCC[C@H]1C(=O)N[C@@H](Cc1cnc[nH]1)C(=O)N[C@@H](CCCCN)C(=O)N/C(=C\CCNC(=N)N)C(=O)N[C@@H](CCCCN)C(=O)NCCCCN)[C@@H](O)CN)[C@@H](O)CN [22.16] (H-A[Dab(3S-OH)][Dab(3S-OH)]G[dOrn]PHK[ΔZArg]K-{NH(CH2)4NH2}) | + (≤32 μg/mL) | − (>32 μg/mL) | − (>32 μg/mL) | < 30 | ++ (≤8 μg/mL) | – | –
C[C@H](NC(=O)[C@H](CCCCN)NC(=O)[C@H](Cc1cnc[nH]1)NC(=O)[C@@H]1CCCN1C(=O)[C@@H](CCCN)NC(=O)CNC(=O)[C@@H](NC(=O)[C@@H](NC(=O)[C@@H](N)CCCCN)[C@@H](O)CN)[C@@H](O)CN)C(=O)N[C@@H](CCCCN)C(=O)NCCCCN [22.23] (H-K[Dab(3S-OH)][Dab(3S-OH)]G[dOrn]PHKAK-{NH(CH2)4NH2}) | − (>32 μg/mL) | − (>32 μg/mL) | − (>32 μg/mL) | < 30 | ++ (≤8 μg/mL) | – | –
C[C@H](NC(=O)[C@@H](NC(=O)[C@@H](NC(=O)[C@@H](N)CCCCN)[C@@H](O)CN)[C@@H](O)CN)C(=O)N[C@H](CCCN)C(=O)N1CCC[C@H]1C(=O)N[C@@H](Cc1cnc[nH]1)C(=O)N[C@@H](CCCCN)C(=O)N/C(=C\CCNC(=N)N)C(=O)N[C@@H](CCCCN)C(=O)NCCCCN [22.24] (H-K[Dab(3S-OH)][Dab(3S-OH)]A[dOrn]PHK[ΔZArg]K-{NH(CH2)4NH2}) | − (>32 μg/mL) | − (>32 μg/mL) | − (>32 μg/mL) | < 30 | ++ (≤8 μg/mL) | – | –
C=CC[C@H](NC(=O)[C@@H](NC(=O)[C@@H](N)CCCCN)[C@@H](O)CN)C(=O)NCC(=O)N[C@H](CCCN)C(=O)N1CCC[C@H]1C(=O)N[C@@H](Cc1cnc[nH]1)C(=O)N[C@@H](CCCCN)C(=O)N/C(=C\CCNC(=N)N)C(=O)O [216.1] (H-K[Dab(3S-OH)][AllylGly]G[dOrn]PHK[ΔZArg]-OH) | − (>32 μg/mL) | − (>32 μg/mL) | − (>32 μg/mL) | – | + (≤32 μg/mL) | – | –
N=C(N)NCC/C=C(\NC(=O)[C@H](CCCCN)NC(=O)[C@H](Cc1cnc[nH]1)NC(=O)[C@@H]1CCCN1C(=O)[C@@H](CCCN)NC(=O)CNC(=O)[C@H](CCCNC(=N)N)NC(=O)[C@@H](NC(=O)[C@@H](N)CCCCN)[C@@H](O)CN)C(N)=O [217.1] (H-K[Dab(3S-OH)]RG[dOrn]PHK[ΔZArg]-NH2) | ++ (≤8 μg/mL) | − (>32 μg/mL) | − (>32 μg/mL) | – | ++ (≤8 μg/mL) | – | –
N=C(N)NCC/C=C(\NC(=O)[C@H](CCCCN)NC(=O)[C@H](Cc1cnc[nH]1)NC(=O)[C@@H]1CCCN1C(=O)[C@@H](CCCN)NC(=O)CNC(=O)[C@@H](NC(=O)[C@@H](NC(=O)[C@@H](N)CCCCN)[C@@H](O)CN)C1CCCC1)C(N)=O [220.1] (H-K[Dab(3S-OH)][Gly(cPent)]G[dOrn]PHK[ΔZArg]-NH2) | + (≤32 μg/mL) | − (>32 μg/mL) | − (>32 μg/mL) | – | ++ (≤8 μg/mL) | – | –
N=C(N)NCC/C=C(\NC(=O)[C@H](CCCCN)NC(=O)[C@H](Cc1cnc[nH]1)NC(=O)[C@@H]1CCCN1C(=O)[C@@H](CCCN)NC(=O)CNC(=O)[C@H](CN)NC(=O)[C@@H](NC(=O)[C@@H](N)CCCCN)[C@@H](O)CN)C(=O)O [221.1] (H-K[Dab(3S-OH)][Dap]G[dOrn]PHK[ΔZArg]-OH) | − (>32 μg/mL) | − (>32 μg/mL) | − (>32 μg/mL) | – | + (≤32 μg/mL) | – | –
N=C(N)NCC/C=C(\NC(=O)[C@H](CCCCN)NC(=O)[C@H](Cc1cnc[nH]1)NC(=O)[C@@H]1CCCN1C(=O)[C@@H](CCCN)NC(=O)CNC(=O)[C@H](CCC(N)=O)NC(=O)[C@@H](NC(=O)[C@@H](N)CCCCN)[C@@H](O)CN)C(N)=O [222.1] (H-K[Dab(3S-OH)]QG[dOrn]PHK[ΔZArg]-NH2) | − (>32 μg/mL) | − (>32 μg/mL) | − (>32 μg/mL) | – | + (≤32 μg/mL) | – | –
C#CC[C@H](NC(=O)[C@@H](NC(=O)[C@@H](N)CCCCN)[C@@H](O)CN)C(=O)NCC(=O)N[C@H](CCCN)C(=O)N1CCC[C@H]1C(=O)N[C@@H](Cc1cnc[nH]1)C(=O)N[C@@H](CCCCN)C(=O)N/C(=C\CCNC(=N)N)C(=O)O [223.1] (H-K[Dab(3S-OH)][Pra]G[dOrn]PHK[ΔZArg]-OH) | + (≤32 μg/mL) | − (>32 μg/mL) | − (>32 μg/mL) | – | + (≤32 μg/mL) | – | –
N=C(N)NCC/C=C(\NC(=O)[C@H](CCCCN)NC(=O)[C@H](Cc1c[nH]cn1)NC(=O)[C@@H]1CCCN1C(=O)[C@@H](CCCN)NC(=O)CNC(=O)[C@H](CCO)NC(=O)[C@@H](NC(=O)[C@@H](N)CCCCN)[C@@H](O)CN)C(=O)O [225.1] (H-K[Dab(3S-OH)][hSer]G[dOrn]PHK[ΔZArg]-OH) | − (>32 μg/mL) | − (>32 μg/mL) | − (>32 μg/mL) | – | + (≤32 μg/mL) | – | –
N=C(N)NCC/C=C(\NC(=O)[C@H](CCCCN)NC(=O)[C@H](Cc1c[nH]cn1)NC(=O)[C@@H]1CCCN1C(=O)[C@@H](CCCN)NC(=O)CNC(=O)[C@@H](NC(=O)[C@@H](NC(=O)[C@@H](N)CCCCN)[C@@H](O)CN)[C@@H](O)CN)C(=O)N[C@@H](CCCCN)C(=O)NCCCCN [Odilomycin C, reference compound] (H-K[Dab(3S-OH)][Dab(3S-OH)]G[dOrn]PHK[ΔZArg]K-{NH(CH2)4NH2}; N-terminus and C-terminus assumed) | – | – | – | < 30 | – | – | 9
